Source: patent US20120196791A1, “COMBINATION THERAPIES USING ANTIBACTERIAL AMINOGLYCOSIDE COMPOUNDS” (Achaogen, Inc., priority 2009, published 2012)

Experiments:
Assay type in all cases: cell-based
P. aeruginosa strains [1] = experiment: Synergy time-kill; conditions: with each drug tested, majority of isolates, 24 h
P. aeruginosa strains [2] = experiment: MIC by macrodilution
Excerpt: (§1) “MIC”, which stands for minimum inhibitory concentration, refers to that concentration, in μg/mL, of a compound of this invention that inhibits the growth and/or proliferation of a strain of bacteria by at least 80% compared to an untreated control as determined by visual inspection of a liquid culture.
Synergy time-kill was used to test the activity of Example 1, alone and in combination with cefepime, doripenem, imipenem and piperacillin/tazobactam, against 10 P. aeruginosa strains. The 10 clinical isolates included 5 cefepime resistant, 5 doripenem resistant, 8 imipenem resistant, and 9 piperacillin/tazobactam resistant strains. MICs were determined by macrodilution and time-kill was used to verify the activity of all five agents alone. MICs were predetermined by macrodilution in cation-adjusted Mueller-Hinton broth (BBL Microbiology Systems, Cockeysville, Md.) according to standard methodology. All strains were tested by time-kill methodology with each compound alone according to standard methods. Strains were examined by PCR for genes encoding aminoglycoside modifying enzymes (AMEs). Cultures were initiated by adding 35-μL aliquots of suspensions into 5 mL of broth. Viability counts (100-μL aliquots) in synergy tests were performed at 0, 3, 6, 12, and 24 h in a shaking water bath at 35° C. with final inocula of between 5×10^5 and 5×10^6 CFU/mL. Only plates with 30 to 300 colonies were counted.

S. aureus strains = experiment: MIC by macrodilution
Excerpt: as §1
Synergy time-kill was used to test the activity of Example 1, alone and in combination with daptomycin (DAP), ceftobiprole (BPR), and linezolid (LZD), against 25 S. aureus strains. 25 clinical isolates included 2 hVISA, 2 VISA, and 5 VRSA, 10 hospital acquired and 6 community acquired MRSA strains. MICs were determined by macrodilution and time-kill was used to verify the activity of all four agents alone. MICs were predetermined by macrodilution in cation-adjusted Mueller-Hinton broth (BBL Microbiology Systems, Cockeysville, Md.) according to standard methodology. Daptomycin susceptibility testing was performed in Mueller-Hinton broth adjusted to 50 μg/mL of calcium according to standard methodology. All strains were tested by time-kill methodology with each compound alone according to standard methods. Cultures were initiated by adding 35-μL aliquots of suspensions into 5 mL of broth. Viability counts (100-μL aliquots) in synergy tests were performed at 0, 3, 6, 12, and 24 h in a shaking water bath at 35° C. with final inocula of between 5×10^5 and 5×10^6 CFU/mL. Only plates with 30 to 300 colonies were counted.

With `CN[C@@H]1[C@@H](O)[C@@H](O[C@@H]2[C@@H](O)[C@H](O[C@H]3OC(CNCCO)=CC[C@H]3N)[C@@H](N)C[C@H]2NC(=O)[C@@H](O)CCN)OC[C@]1(C)O` [Example 1, 6′-(2-Hydroxy-ethyl)-1-(4-amino-2(S)-hydroxy-butyryl)-sisomicin] as the molecule, how does the “Example 1 concentration yielding synergy” value (P. aeruginosa strains [1]) read?
The value was “¼”.

What about the “MICs for strains with genes encoding AMEs” value (P. aeruginosa strains [2]; 3 strains: 2 ant(2″)-Ia, 1 aac(6′)-Ib) of the same molecule?
The value was “equivalent to strains lacking AMEs”.

What about the MIC (P. aeruginosa strains [2]; Strain 1) of the same molecule?
The MIC was 64 µg/mL.

What about the MIC (P. aeruginosa strains [2]; Strain 2) of the same molecule?
Its MIC is 16 µg/mL.

What about the MIC (P. aeruginosa strains [2]; Strain 3) of the same molecule?
The MIC was 16 µg/mL.

What about the MIC (P. aeruginosa strains [2]; Strain 4) of the same molecule?
The MIC was 16 µg/mL.

What about the MIC (P. aeruginosa strains [2]; Strain 5) of the same molecule?
The MIC was 32 µg/mL.

What about the MIC (P. aeruginosa strains [2]; Strain 6) of the same molecule?
Its MIC is 8 µg/mL.

And the MIC (P. aeruginosa strains [2]; Strain 7)?
The MIC was 16 µg/mL.

And the MIC (P. aeruginosa strains [2]; Strain 8)?
Its MIC is 16 µg/mL.

And the MIC (P. aeruginosa strains [2]; Strain 9)?
Its MIC is 16 µg/mL.

And the MIC (P. aeruginosa strains [2]; Strain 10)?
The MIC was 32 µg/mL.

What about the “MICs of each agent alone” value (P. aeruginosa strains [2]; range over 10 P. aeruginosa strains) of the same molecule?
The value was 8 to 64 µg/mL.

What about the MIC (S. aureus strains; Strain 1, VRSA) of the same molecule?
Its MIC is 1.0 µg/mL.

What about the MIC (S. aureus strains; Strain 2, VRSA) of the same molecule?
Its MIC is 0.5 µg/mL.

What about the MIC (S. aureus strains; Strain 3, VRSA) of the same molecule?
Its MIC is 1.0 µg/mL.

What about the MIC (S. aureus strains; Strain 4, VRSA) of the same molecule?
The MIC was 2.0 µg/mL.

And the MIC (S. aureus strains; Strain 5, VRSA)?
The MIC was 1.0 µg/mL.

And the MIC (S. aureus strains; Strain 6, CA-MRSA, PVL+)?
The MIC was 4.0 µg/mL.

And the MIC (S. aureus strains; Strain 7, CA-MRSA, PVL+)?
Its MIC is 2.0 µg/mL.

What about the MIC (S. aureus strains; Strain 8, CA-MRSA, PVL+) of the same molecule?
Its MIC is 4.0 µg/mL.

And the MIC (S. aureus strains; Strain 9, hVISA)?
The MIC was 1.0 µg/mL.

And the MIC (S. aureus strains; Strain 10, hVISA)?
The MIC was 1.0 µg/mL.

What about the MIC (S. aureus strains; Strain 11, VISA) of the same molecule?
Its MIC is 4.0 µg/mL.

And the MIC (S. aureus strains; Strain 12, VISA)?
The MIC was 4.0 µg/mL.

What about the MIC (S. aureus strains; Strain 13, ATCC33591 HA-MRSA) of the same molecule?
The MIC was 8.0 µg/mL.

What about the MIC (S. aureus strains; Strain 14, HA-MRSA) of the same molecule?
Its MIC is 2.0 µg/mL.

What about the MIC (S. aureus strains; Strain 15, HA-MRSA) of the same molecule?
The MIC was 2.0 µg/mL.

And the MIC (S. aureus strains; Strain 16, HA-MRSA)?
The MIC was 2.0 µg/mL.

What about the MIC (S. aureus strains; Strain 17, HA-MRSA) of the same molecule?
The MIC was 4.0 µg/mL.

What about the MIC (S. aureus strains; Strain 18, HA-MRSA) of the same molecule?
Its MIC is 2.0 µg/mL.

What about the MIC (S. aureus strains; Strain 19, HA-MRSA) of the same molecule?
The MIC was 2.0 µg/mL.

And the MIC (S. aureus strains; Strain 20, HA-MRSA)?
The MIC was 2.0 µg/mL.

What about the MIC (S. aureus strains; Strain 21, HA-MRSA) of the same molecule?
The MIC was 4.0 µg/mL.

What about the MIC (S. aureus strains; Strain 22, HA-MRSA) of the same molecule?
Its MIC is 4.0 µg/mL.

What about the MIC (S. aureus strains; Strain 23, CA-MRSA PVL+) of the same molecule?
Its MIC is 4.0 µg/mL.

And the MIC (S. aureus strains; Strain 24, CA-MRSA PVL+)?
Its MIC is 4.0 µg/mL.

What about the MIC (S. aureus strains; Strain 25, CA-MRSA PVL neg) of the same molecule?
The MIC was 2.0 µg/mL.

What about the “MICs of each agent alone” value (S. aureus strains; range over 25 S. aureus strains) of the same molecule?
Its value is 0.5 to 8 µg/mL.
